In PubChem BioAssay AID212 (DTP/NCI, 2004):
Where “and” joins values, the source holds several entries; their conditions need not be identical. Identical values can stand only once. Records with an inconclusive call do not appear. *1 amine or outer side, *2 acyl side, *3 side chain or, on linkers, in order; H or OH if unused. Where a SMILES comes first, the peptide text is derived from it. Bridges are numbered along the chain shown (N, C = ends). Roman numbers before positions name the chains, in order. [ ]: non-standard residue; d: D form. Actinocin(9to1) = Cc1c2oc3c(C)ccc(C(=O)[*:1])c3nc-2c(C(=O)[*:2])c(N)c1=O; aThr = C[C@H](O)[C@H](N)C(=O)O; NMeV = CN[C@H](C(=O)O)C(C)C; Sar = CNCC(=O)O

Tested on: BDF1 mice, colon carcinoma 38 sc, T/C %
Assay: NCI In Vivo Anticancer Drug Screen. Data for tumor model Colon Carcinoma 38 (subcutaneous) in B6D2F1 (BDF1) mice
Settings: endpoint: median tumor weight (est.), schedule: Q07DX002 (ip), higher = larger tumour
Summary of the method: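 Transplantable tumor in mice; compound-treated vs vehicle-dosed controls. Measured survival or tumor size; value = T ÷ C.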

[1] = dose: 12.5 mg/kg/injection, vehicle: saline with Tween-80
[2] = dose: 50.0 mg/kg/injection, vehicle: saline with Tween-80
[3] = dose: 200.0 mg/kg/injection, vehicle: saline with Tween-80
[4] = dose: 25.0 mg/kg/injection, vehicle: saline
[5] = dose: 100.0 mg/kg/injection, vehicle: saline
[6] = dose: 200.0 mg/kg/injection, vehicle: saline
[7] = dose: 400.0 mg/kg/injection, vehicle: saline
[8] = dose: 25.0 mg/kg/injection, vehicle: saline with Tween-80
[9] = dose: 25.0 mg/kg/injection, vehicle: Klucel (hydroxypropylcellulose) (HPC)
[10] = dose: 50.0 mg/kg/injection, vehicle: Klucel (hydroxypropylcellulose) (HPC)
[11] = dose: 100.0 mg/kg/injection, vehicle: Klucel (hydroxypropylcellulose) (HPC)
[12] = dose: 200.0 mg/kg/injection, vehicle: Klucel (hydroxypropylcellulose) (HPC)

## Cc1c2oc3c(C)ccc(C(=O)N[C@@H]4C(=O)N[C@H](C(C)C)C(=O)N5CCC[C@H]5C(=O)N(C)CC(=O)N(C)[C@@H](C(C)C)C(=O)O[C@H]4C)c3nc-2c(C(=O)N[C@@H]2C(=O)N[C@H](C(C)C)C(=O)N3CCC[C@H]3C(=O)N(C)CC(=O)N(C)[C@@H](C(C)C)C(=O)O[C@H]2C)c(N)c1=O (I: [aThr][dV]P[Sar][NMeV] / II: [aThr][dV]P[Sar][NMeV]; ester I:1-I:C, II:1-II:C; linker I:N-II:N via Actinocin(9to1))
dose: 100.0 micrograms/kg/injection, vehicle: saline + alcohol
  T/C: 104 % of control
dose: 200.0 micrograms/kg/injection, vehicle: saline + alcohol
  T/C: 77 % of control
dose: 400.0 micrograms/kg/injection, vehicle: saline + alcohol
  T/C: 19 % of control

## COC1(OC)C2C=CC1CC2
[1]
  T/C: 73 % of control
[2]
  T/C: 105 % of control and 107 % of control
[3]
  T/C: 80 % of control and 94 % of control
dose: 400.0 mg/kg/injection, vehicle: saline with Tween-80
  T/C: 113 % of control and 105 % of control

## COC(=O)CC(N)C(=O)O (stereo not given)
[4]
  T/C: 95 % of control
dose: 50.0 mg/kg/injection, vehicle: saline
  T/C: 70 % of control
[5]
  T/C: 86 % of control
[6]
  T/C: 61 % of control
[7]
  T/C: 50 % of control

## O=S(=O)(CCl)OCCCl
[1]
  T/C: 103 % of control
[8]
  T/C: 111 % of control
[2]
  T/C: 58 % of control
dose: 100.0 mg/kg/injection, vehicle: saline with Tween-80
  T/C: 55 % of control

## O=CN(SSN(C=O)C1CCCCC1)C1CCCCC1
[8]
  T/C: 98 % of control and 99 % of control
[2]
  T/C: 77 % of control and 78 % of control
[3]
  T/C: 113 % of control and 98 % of control

## C[Si](C)(C)OSc1ccccc1[N+](=O)[O-]
[9]
  T/C: 118 % of control
[10]
  T/C: 113 % of control
[11]
  T/C: 110 % of control
dose: 800.0 mg/kg/injection, vehicle: Klucel (hydroxypropylcellulose) (HPC)
  T/C: 86 % of control

## COCC1OC2OC3C(COC)OC(OC4C(COC)OC(OC5C(COC)OC(OC6C(COC)OC(OC7C(COC)OC(OC8C(COC)OC(OC1C(O)C2O)C(O)C8O)C(O)C7O)C(O)C6O)C(O)C5O)C(O)C4O)C(O)C3O (stereo not given) (tested in a mixture with another compound)
[9]
  T/C: 72 % of control
[10]
  T/C: 68 % of control
[11]
  T/C: 53 % of control
[12]
  T/C: 69 % of control
dose: 400.0 mg/kg/injection, vehicle: Klucel (hydroxypropylcellulose) (HPC)
  T/C: 95 % of control

## CSc1cc(C)[o+]c(C)c1
[9]
  T/C: 117 % of control
[10]
  T/C: 184 % of control
[12]
  T/C: 108 % of control

## C[C@H]1C/C=C/[C@H]2[C@@H]3O[C@]3(C)[C@@H](C)[C@H]3[C@H](Cc4ccccc4)NC(=O)[C@]32OC(=O)O/C=C/[C@@](C)(O)C1=O
dose: 6.25 mg/kg/injection, vehicle: Klucel (hydroxypropylcellulose) (HPC)
  T/C: 79 % of control
dose: 12.5 mg/kg/injection, vehicle: Klucel (hydroxypropylcellulose) (HPC)
  T/C: 88 % of control

## O=c1cc(-c2ccccc2)[nH]c2c1CCCC2
dose: 900.0 mg/kg/injection, vehicle: saline with Tween-80
  T/C: 101 % of control

## O=c1ccc2ccccc2o1
[10]
  T/C: 115 % of control
[11]
  T/C: 118 % of control
[12]
  T/C: 118 % of control

## CC(=O)OCC12CCC(C)=CC1OC1C(=O)CC2(C)C12CO2 (stereo not given)
dose: 0.25 mg/kg/injection, vehicle: saline
  T/C: 111 % of control
dose: 10.0 mg/kg/injection, vehicle: saline
  T/C: 155 % of control
dose: 20.0 mg/kg/injection, vehicle: saline
  T/C: 119 % of control

## CC[As](=O)(O)CC
dose: 12.5 mg/kg/injection, vehicle: saline
  T/C: 101 % of control
[4]
  T/C: 110 % of control
[5]
  T/C: 81 % of control
[6]
  T/C: 97 % of control
[7]
  T/C: 110 % of control
